Our source for the surface area and solubility values is patent US10426781B2, “Oral formulation and suspension of an oncology drug” (SUN PHARMA GLOBAL FZE, priority 2013, dated 2019).

Data set [1] is described as follows: Surface area of sonidegib drug substance. In kind it is physicochemical.
A short description of data set [2]: Solubility of sonidegib phosphate in various media. In kind it is physicochemical. From the text:
Solubility of Sonidegib Phosphate in Various Media

With `Cc1c(C(=O)Nc2ccc(N3C[C@@H](C)O[C@@H](C)C3)nc2)cccc1-c1ccc(OC(F)(F)F)cc1` [Sonidegib, N-(6-((2R,6S)-2,6-dimethylmorpholino)pyridin-3-yl)-2-methyl-4′-(trifluoromethoxy)-[1,1′-biphenyl]-3-carboxamide], the surface area entry in data set [1] was “Sonidegib has a very high surface area (270 m2/g) and a porous structure that leads to poor water solubility”.
On to `Cc1c(C(=O)Nc2ccc(N3C[C@@H](C)O[C@@H](C)C3)nc2)cccc1-c1ccc(OC(F)(F)F)cc1` [Sonidegib Phosphate], for which the solubility was below 0.2 µg/mL in data set [2] (acetate buffer, pH 4.5, aqueous buffer); below 0.2 µg/mL in data set [2] (phosphate buffer, pH 6.8, aqueous buffer); below 0.2 µg/mL in data set [2] (phosphate buffer, pH 7.4, aqueous buffer); 18 µg/mL in data set [2] (simulated gastric fluid, 0.01N HCl, pH 2.0); 4 µg/mL in data set [2] (simulated gastric fluid, 0.1N HCl, pH 1.0); 7 µg/mL in data set [2] (water).

Broadly, the solubility is how much of the substance goes into solution per volume. Low values mean little dissolved substance, high ones much dissolved substance.
